This is an account of results in ChEMBL document CHEMBL1201862, “PubChem BioAssay data set” (2004).

Holding throughout (assay): growth of human tumour cells (NCI), 48 h
Test [1] has as its system RXF 393.
Test [2] deals with LOX IMVI.
Test [3] deals with SR.
Test [4] concerns A498.
In test [5] the test system is HCC 2998.
Test [6] relates to MDA-MB-435.
The subject of test [7] is NCI-H460.
Test [8] has as its system OVCAR-4.
Test [9] has as its system SK-MEL-5.
Test [10] concerns MCF7.
In test [11] the test system is TK-10.
In test [12] the test system is HCT-116.
Test [13] concerns K562.
Test [14] concerns U-251.
Test [15] has as its system MOLT-4.
The subject of test [16] is EKVX.
The test system of test [17] is SK-MEL-2.
For test [18], the system named is T47D.
In test [19] the test system is UACC-62.
In test [20] the test system is SK-OV-3.

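These data come from cells grown in 96-well plates and exposed to compound for 48 hours at five concentrations. Abbreviation: GI50, concentration required for 50% inhibition of growth.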 Activity calls are given as the source filed them. No stated cut-off is given here; in the data, active = GI50 up to about 1.1 µM and inactive = higher.

As for `O=C(Nc1nc(C23CC4CC(CC(C4)C2)C3)cs1)c1cc2ccccc2oc1=O`, the GI50 in [1], in [2], in test [3], in test [4], in [5] and in test [6] was > 100 µM (inactive) throughout. The GI50 in [7], in test [8], in [9], in test [10], in [11] and in [12] was > 100 µM (inactive) throughout. For the same compound, the GI50 in test [13], in [14], in [15] and in [16] was > 100 µM (inactive) in each case.

With `CCCNC(=O)c1cc(OC)c(OC)cc1NC(=O)C12CC3CC(CC(C3)C1)C2`, the GI50 in test [17] is 15.5 µM (inactive); in test [1] it was 6.81 µM (inactive); in test [2] it was 19.5 µM (inactive); in test [4], 15.1 µM (inactive); in test [6] it was 17.9 µM (inactive); in test [18] it was 17.5 µM (inactive). In addition, the GI50 in test [7] was 20.6 µM (inactive); in test [8], 17.6 µM (inactive); in test [9], 40 µM (inactive); in [10], 22.2 µM (inactive); in [11], 16.6 µM (inactive); in test [12] it was 16.8 µM (inactive). Besides, the GI50 in test [13] is 31.9 µM (inactive); in test [14], 17 µM (inactive); in test [15], 29.9 µM (inactive); in test [16], 18.2 µM (inactive).

As to `COC(=O)c1nc2c3c(cccc3c1C(=O)OC)Nc1ccccc1-2`, the GI50 in test [17] was 28.1 µM (inactive); in [1], 35.7 µM (inactive); in test [2] it was 32.3 µM (inactive); in test [3] it was 78.3 µM (inactive); in [4], 36.6 µM (inactive); in test [5] it was 42.3 µM (inactive). The GI50 in test [19] is 10.7 µM (inactive); in [6], 83.6 µM (inactive); in test [7] it was 25.7 µM (inactive); in test [8] it was 35.9 µM (inactive); in test [9], 15.4 µM (inactive); in test [10], 60.4 µM (inactive). For the same compound, the GI50 is 40.9 µM (inactive) in [11]; 25.2 µM (inactive) in [12]; 54.1 µM (inactive) in test [13]; 32.1 µM (inactive) in test [14]; 43.8 µM (inactive) in test [15]; 24 µM (inactive) in [20]. The GI50 in test [16] is 65.8 µM (inactive).

In the case of `COc1cc2oc(=O)cc(C)c2c(OC)c1OC`, the GI50 was > 100 µM (inactive) in [17]; > 100 µM (inactive) in [2]; > 100 µM (inactive) in test [3]; 30.8 µM (inactive) in test [4]; > 100 µM (inactive) in test [19]; > 100 µM (inactive) in [6]. Also, the GI50 in [8], in test [9], in [10], in test [11], in test [12] and in test [13] was > 100 µM (inactive) each time. Besides, the GI50 in test [14] is > 100 µM (inactive); in test [15], > 100 µM (inactive); in [20], > 100 µM (inactive); in test [16] it was 87.9 µM (inactive).

`CC(C)Oc1c(O)c2c3c(oc(=O)n3C=CC2c2ccccc2)c1OC(C)C` (stereo not drawn): the GI50 in test [17] was 15.7 µM (inactive); in [2], 37.8 µM (inactive); in test [5], 19 µM (inactive); in test [6], > 10 µM (inactive); in test [18], 25.9 µM (inactive); in test [7], 14.7 µM (inactive). Besides, the GI50 is 24.6 µM (inactive) in [8]; 32.3 µM (inactive) in [9]; 19.6 µM (inactive) in test [10]; 22.1 µM (inactive) in test [11]; 28.8 µM (inactive) in test [12]; 20.8 µM (inactive) in test [14]. Further, the GI50 in test [15] was 31 µM (inactive); in test [20] it was > 100 µM (inactive); in test [16] it was 22.3 µM (inactive).

Consider `N/C(=N\c1cccc(Cl)c1)c1ccccc1N`, for which the GI50 in [1], in test [2], in test [3], in test [4], in test [5] and in test [19] was > 100 µM (inactive) throughout. Moreover, the GI50 in test [6], in [7], in test [8], in test [9], in test [10] and in test [11] was > 100 µM (inactive) in each case. For the same compound, the GI50 in [12], in [13], in [14], in test [15], in test [20] and in test [16] was > 100 µM (inactive) throughout.

Take `CC(C)CC(=O)CC(C)[C@]1(CCCOCc2ccccc2)C(=O)N2CCC3(C[C@@]24CCC[C@H]41)OCCO3` (stereo partly drawn): the GI50 in [17], in [3], in test [4], in test [5], in [6] and in test [7] was > 10 µM (inactive) throughout. Moreover, the GI50 in test [8], in test [9], in [10], in test [11], in test [13] and in test [14] was > 10 µM (inactive) throughout. The GI50 in test [15], in [20] and in [16] was > 10 µM (inactive) each time.

Regarding `C[C@]12CC[C@H]3[C@@H](CC[C@]4(O)C[C@@H](O)CC[C@]34/C=N/O)[C@@]1(O)CC[C@@H]2C1=COC(=O)C1`, the GI50 in [17] is 0.255 µM (active); in test [1], 0.0318 µM (active); in [2], 0.136 µM (active); in test [3], 0.0504 µM (active); in test [4] it was 0.0929 µM (active); in test [5] it was 0.251 µM (active). Moreover, the GI50 in test [19] is 0.303 µM (active); in [6], 0.257 µM (active); in [18], 0.317 µM (active); in test [7], 0.0403 µM (active); in test [8], 0.0608 µM (active); in test [9] it was 0.0583 µM (active). For the same compound, the GI50 is 0.0845 µM (active) in [11]; 0.0403 µM (active) in test [12]; 0.12 µM (active) in [13]; 0.212 µM (active) in [14]; 0.0272 µM (active) in [15]; 0.0436 µM (active) in [20]. In addition, the GI50 in test [16] was 0.1 µM (active).

In the case of `COC(=O)C1=C(C(=O)OC)C2CCC1CC2=O` (stereo not drawn), the GI50 is > 100 µM (inactive) in [17]; > 100 µM (inactive) in test [1]; > 100 µM (inactive) in test [2]; 61.2 µM (inactive) in test [3]; > 100 µM (inactive) in [4]; > 100 µM (inactive) in test [5]. In addition, the GI50 in [19], in test [6], in test [7], in test [8], in test [9] and in test [10] was > 100 µM (inactive) throughout. For the same compound, the GI50 is > 100 µM (inactive) in [11]; > 100 µM (inactive) in test [12]; 49 µM (inactive) in test [13]; > 100 µM (inactive) in test [14]; 45.5 µM (inactive) in test [15]; > 100 µM (inactive) in [20]. Further, the GI50 in [16] was > 100 µM (inactive).

Take `O=[N+]([O-])c1cccc2nc3ccccc3c(NCCCNc3c4ccccc4nc4cccc([N+](=O)[O-])c34)c12`: the GI50 in test [17] was 0.035 µM (active); in [1] it was 0.0177 µM (active); in test [2], 0.0977 µM (active); in test [5] it was 0.0157 µM (active); in test [19] it was 0.0513 µM (active); in test [6], 0.0167 µM (active). For the same compound, the GI50 was 0.0537 µM (active) in [18]; < 0.01 µM (active) in test [7]; 0.0635 µM (active) in [8]; 0.0163 µM (active) in test [9]; 0.0151 µM (active) in test [10]; 0.02 µM (active) in [11]. Moreover, the GI50 was 0.0103 µM (active) in test [12]; < 0.01 µM (active) in test [13]; 0.0171 µM (active) in [14]; 0.017 µM (active) in [15]; 0.0982 µM (active) in test [20]; 0.0312 µM (active) in [16].

For `COc1ccc2c(-c3csc(-c4c[nH]c5ccc(Br)cc45)n3)c[nH]c2c1`, the GI50 in [17] was 19.1 µM (inactive); in test [1], 11.9 µM (inactive); in [2], 64.1 µM (inactive); in test [4], 89.3 µM (inactive); in [19], > 100 µM (inactive); in test [6] it was 7.69 µM (inactive). Besides, the GI50 in test [18] is 59.3 µM (inactive); in [7], 23.2 µM (inactive); in test [8], 70.5 µM (inactive); in test [9], > 100 µM (inactive); in test [10] it was 54.1 µM (inactive); in [11] it was 49 µM (inactive). The GI50 in test [12] is 31.3 µM (inactive); in test [13], 15.2 µM (inactive); in test [14] it was 25.1 µM (inactive); in test [15] it was 23 µM (inactive); in test [16], 32.1 µM (inactive).
